From US9775335B2, “Durable coating-embedded pesticides with peel and stick mosquito treatment of containers” (University of Florida Research Foundation, Inc., priority 2013, dated 2017)

Key:
Type in all cases: in vivo
[1] = tested on: mosquito larvae; assay: Adult mosquito emergence after high volume washing of coated containers (FIG. 24); conditions: embedded in polycrylic and polyurethane coatings; washed with tap water 5×, 20×, 50× container volume, refilled with fresh water
Description: Referring to FIG. 24, two of the coating tested previously (refer to FIG. 23) were also tested for durability under high volume washing to see if they could stand under heavy rains. The coatings applied to plastic containers were subject to continuous washing with tap water for total volumes equivalent to 5×, 20×, and 50× the container volumes. After wards the containers were refilled with fresh water and mosquito larvae were added to the water. Adult emergence from the larvae was only observed in containers with coatings that contained no embedded larvicide. […] Coatings prevent larvicide washing off, with up to 50 times the volume of water as contained in the ovitrap. Most larvicides are applied to water and disappear when containers are emptied and re filled either naturally by rain action or by other means. The coating constantly treats new water put in containers with enough larvicide to preserve the mosquito-killing action. Both polycrylic and polyurethane protect the action of pyriproxyfen larvicide when containers coated with these materials are subjected to washing.

[2] = tested on: mosquito larvae; assay: Mosquito larval mortality with coating-embedded larvicide, 0-week and 20-week aging (FIGS. 17-18)
Excerpt: FIG. 17 is a graph of mosquito larval mortality after 0-week aging with the average live mosquitoes on the vertical axis versus exposure time on the horizontal axis.
FIG. 18 is a graph of mosquito larval mortality after 20-week aging with the average live mosquitoes on the vertical axis versus exposure time on the horizontal axis.
FIG. 17 is a graph of mosquito larval mortality over 0-week aging with amount of mosquitoes on the vertical axis versus exposure time on the horizontal axis.
FIG. 18 is a graph of mosquito larval mortality over 20-week aging on the vertical axis versus exposure time on the horizontal axis.
By embedding the larvicide pyriproxyfen in a coating, the mosquito killing action is protected from degradation for more than 20 weeks.

[3] = tested on: mosquito larvae; assay: Adult mosquito emergence, larvicide embedded in different coatings at different rates (FIG. 23)
Excerpt: Referring to FIG. 23, three different coating were used to embed the larvicide pyriproxyfen at 3 different rates. Coatings were applied to plastic containers that were filled with water, before mosquito larvae were transferred to these containers.
Several different formulae (polycrylic, Polyurethane and Latex paint) have been tested as coatings for the larvicide. All coatings performed well in preventing adult emergence from larvae added to water-holding containers coated internally with the coating-embedded larvicide even with 0.0001% of the active ingredient in the coating. Water treated with 0.01% rate is considered potable by the World Health Organization (WHO).

## CC(COc1ccc(Oc2ccccc2)cc1)Oc1ccccn1 (centres unmarked) [pyriproxyfen, Pyriproxyfen]
[1]
  adult mosquito emergence after washing: prevented the emergence of adults
[2]; larvicide embedded in a coating
  time for which the mosquito killing action is protected from degradation: more than 20 weeks
[2]; water in contact with coating-embedded larvicide or larvicide applied directly to container, new material or aged 20 weeks
  mosquito larval mortality / prevention of mosquito emergence: mosquito larvae start to die as they reach the pupal stage
[3]; embedded in three different coatings at 3 rates, applied to plastic containers filled with water
  adult mosquito emergence: no emergence of mosquitoes even at low pyriproxyfen content
[3]; water standard (no coating), 3 rates
  adult mosquito emergence: mosquito emergence was only inhibited at the high pyriproxyfen level
